Data taken from patent US10363234B2, “Antihypertensive agent” (WAKUNAGA PHARMACEUTICAL CO., LTD., priority 2015, dated 2019).

Key:
Type in all cases: in vivo, rat
[1] = system: Spontaneous Hypertensive Rats (SHR); assay: Repeated oral administration of S1PC to spontaneous hypertensive rats for 10 weeks, systolic blood pressure (Test Example 3); settings: SHR/Izm rats, 6.5 mg/kg oral once a day for 10 weeks, two-way ANOVA
Protocol: Effect of Repeated Oral Administration of S-1-Propenylcysteine (S1PC) on Spontaneous Hypertensive Rats (SHR)
One group of ten 8-week-old male SHR/Izm rats purchased from Japan SLC, Inc. (Hamamatsu-shi) was preliminarily bred for two weeks. During preliminary breeding, handling was performed on the rats, and the rats were bred in a constant environment (temperature; 23±1° C., humidity; 50±10%, light-dark cycle; 12 hours (light period; 7 to 19 o'clock)) and freely fed with an artificial diet (CE-2; CLEA Japan, Inc.) and sterilized tap water.
(§1) The administration was performed by forced oral administration using a disposable feeding needle and the fluid volume to be administered was 10 mL per 1 kg of SHR weight. […]
Before the repeated oral administration (0 hour), and every other week after the administration up to 10 weeks, the systolic blood pressure at the base of each tail was measured without anesthesia using a non-preheating, non-invasive blood pressure monitor (MK-2000ST, Muromachi Kikai Co., Ltd.). Note that the measurement was performed five times per individual, the upper and lower values were eliminated, and an average of the remaining measured values was defined as a systolic blood pressure value of the individual. […]

[2] = system: Spontaneous Hypertensive Rats (SHR); assay: Single oral administration of S1PC to spontaneous hypertensive rats, systolic blood pressure (Test Example 1); settings: SHR/Izm rats, single oral dose 6.5 mg/kg, 1.5 to 6 hours after the administration, t-test
Protocol: Effect of Administering S-1-Propenylcysteine (S1PC) to Spontaneous Hypertensive Rats (SHR)
One group of eight 8-week-old male SHR/Izm rats purchased from Japan SLC, Inc. (Hamamatsu-shi) was preliminarily bred for two weeks. During preliminary breeding, handling was performed on the rats, and the rats were bred in a constant environment (temperature; 23±1° C., humidity; 50±10%, light-dark cycle; 12 hours (light period; 7 to 19 o'clock)) and freely fed with an artificial diet (CE-2; CLEA Japan, Inc.) and sterilized tap water.
The administration was performed by forced oral administration using a disposable feeding needle and the fluid volume to be administered was 10 mL per 1 kg of SHR weight. As a sample to be administered, about 15 mg of S-1-propenylcysteine produced in Production Example 2 (a cis- and trans-mixture) was precisely weighed and dissolved in 15 mL of purified water. […]
Before the start of administration (0 hour) and after the administration (1.5, 3, 6, and 24 hours), the systolic blood pressure at the base of each tail was measured without anesthesia using a non-preheating, non-invasive blood pressure monitor (MK-2000ST, Muromachi Kikai Co., Ltd.). Note that the measurement was performed five times per individual, the upper and lower values were eliminated, and an average of the remaining measured values was defined as a systolic blood pressure value of the individual. […]

[3] = system: Normotensive Rats (WKY); assay: Single oral administration of S1PC to normotensive rats, systolic blood pressure (Test Example 4); settings: WKY/Izm rats, single oral dose 6.5 mg/kg, measured 3, 6 and 24 hours
Protocol: Effect of Administering S-1-Propenylcysteine (S1PC) to Normotensive Rats (WKY)
One group of four 8-week-old male WKY/Izm rats purchased from Japan SLC, Inc. (Hamamatsu-shi) was preliminarily bred for two weeks. During preliminary breeding, handling was performed on the rats, and the rats were bred in a constant environment (temperature; 23±1° C., humidity; 50±10%, light-dark cycle; 12 hours (light period; 7 to 19 o'clock)) and freely fed with an artificial diet (CE-2; CLEA Japan, Inc.) and sterilized tap water.
The administration was performed by forced oral administration using a disposable feeding needle and the fluid volume to be administered was 10 mL per 1 kg of WKY weight. As a sample to be administered, about 15 mg of S-1-propenylcysteine produced in Production Example 2 (a cis- and trans-mixture) was precisely weighed and dissolved in 15 mL of purified water. […]
(§2) Before the start of administration (0 hour) and after the administration (3, 6, and 24 hours), the systolic blood pressure at the base of each tail was measured without anesthesia using a non-preheating, non-invasive blood pressure monitor (MK-2000ST, Muromachi Kikai Co., Ltd.). Note that the measurement was performed five times per individual, the upper and lower values were eliminated, and an average of the remaining measured values was defined as a systolic blood pressure value of the individual. […]

[4] = system: Spontaneous Hypertensive Rats (SHR); assay: Single oral administration of S1PC and SAC to spontaneous hypertensive rats, systolic blood pressure (Test Example 2); settings: SHR/Izm rats, single oral dose 1 mg/kg, S1PC effect 3 hours after the administration, Bonferroni test
Protocol: Effect of Administering S-1-Propenylcysteine (S1PC) and S-Allylcysteine (SAC) to Spontaneous Hypertensive Rats (SHR)
One group of eight 8-week-old male SHR/Izm rats purchased from Japan SLC, Inc. (Hamamatsu-shi) was preliminarily bred for three weeks. During preliminary breeding, handling was performed on the rats, and the rats were bred in a constant environment (temperature; 23±1° C., humidity; 50±10%, light-dark cycle; 12 hours (light period; 7 to 19 o'clock)) and freely fed with an artificial diet (CE-2; CLEA Japan, Inc.) and sterilized tap water.
as §1, §2

Structure (SMILES) | antihypertensive effect (systolic blood pressure) as compared with the control group [1] | antihypertensive effect (systolic blood pressure) as compared with the control group [2] | antihypertensive effect (systolic blood pressure) on normotensive rats [3] | antihypertensive effect (systolic blood pressure) as compared with the control group [4]
CC=CSCC(N)C(=O)O (centres unmarked) [S-1-propenylcysteine] | significant antihypertensive effect | significant antihypertensive effect | no significant antihypertensive effect | significant antihypertensive effect
C=CCSC[C@H](N)C(=O)O [SAC, S-allylcysteine, reference compound] | – | – | – | no significant antihypertensive effect
